Consider two compounds from patent publication US20070207975A1, “Materials and methods for treating and preventing Her-2/neu overexpressing, FAS-elevated cancer cells” (EVANSTON NORTHWESTERN HEALTHCARE, priority 2006, published 2007).

Where two headings read alike, the source gives them in different places. Some results are limits rather than exact numbers.

The test system of one test is BT-474 cells. Kind of test: MTT cell viability / isobologram analysis, BT-474. Type of test: cell-based, human. As to the method:
FIG. 10. […] Cells in exponential growth were harvested, seeded at a concentration of ˜5×10^3 cells/200 μl/well into 96-well plates and allowed to attach overnight. […] Agents were studied in combination concurrently, and they were not renewed during the entire period of cell exposure. After treatment, the medium was removed and replaced by fresh drug-free medium (100 μl/well), and MTT (5 mg/ml in phosphate-buffered saline [PBS]) was added to each well at a 1/10 volume. After 2-3 hours at 37° C., the supernatants were removed, 100 μl of dimethylsulfoxide was added to each well, and the plates were agitated. Absorbances were measured at 570 nm using a multiwell plate reader (Model Anthos Labtec 2010 1.7 reader). The cell viability effects from exposure of cells to each agent alone and to their combination were analyzed by generating concentration-effect curves as a plot of the fraction of unaffected (surviving) cells versus drug concentration. Dose-response curves were plotted as percentages of the control cell absorbances, which were obtained from control wells treated with appropriate concentrations of vehicles that were processed simultaneously. For each treatment, cell viability was evaluated as a percentage using the following equation: (A570 of treated sample/A570 of untreated sample)×100. […] All statistical tests were two-sided. […]

Test [1] deals with Wild-type Her-2/neu promoter. Briefly: Luciferase reporter driven by wild-type Her-2/neu promoter, transient transfection. The conditions noted are these: for Luciferase activity relative to vehicle-treated wild-type promoter cells: GLA 10 μg/mL for 24 hours; for inhibition at 20 µM: Homo sapiens, OA 20 μM, 24 hours, read-out: reduction (inhibition) of Her-2/neu gene promoter activity. The test is classed as cell-based, human. The method, then:
FIG. 11. Luciferase activity in transiently transfected cells. Luciferase activity was assayed in cells that were transiently transfected with a pGL2-Luc construct containing a luciferase reporter gene under the control of a Her-2/neu promoter fragment containing a wild-type (top panel, left) or mutant (top panel, right) PEA3 binding site as described herein. The magnitude of activation in Her-2/neu promoter-luciferase-transfected cells was determined after normalization of the luciferase activity obtained in cells co-transfected with equivalent amounts of the empty pGL2-Luciferase vector lacking the Her-2/neu promoter (-luciferase) and the internal control plasmid pRL-CMV. This control value was used to calculate the relative change in the transcriptional activities of Her-2/neu-promoter-luciferase-transfected cells in response to treatments after normalization to pRL-CMV. The activity of the wild-type promoter in untreated control cells was defined as 100%. […] One-factor ANOVA was used to analyzed differences in the percentages of luciferase activity between the various treatment groups.
The luciferase activities reported in Table 3 were assayed in cells that were transiently transfected with a pGL2-luciferase (Promega Inc., Madison, Wis.) construct containing a luciferase reporter gene under the control of a Her-2/neu promoter fragment containing a wild-type or mutant PEA3 binding site, as previously described by Xing et al. (36), incorporated herein by reference. […] Luciferase activity from cell extracts was detected with a Luciferase Assay System (Promega Inc.).
To conduct Her-2/neu promoter activity assays, cells were initially transfected using FuGENE 6 transfection reagent (Roche Biochemicals, Indianapolis, Ind.) as directed by the manufacturer. Overnight-serum starved cancer cells seeded into 24-well plates (˜5×10^4 cells/well) were transfected in low-serum (0.1% FBS) media with 1.5 μg/well of the pGL2-luciferase (Promega, Madison, Wis.) construct containing a luciferase reporter gene driven by either an intact (Her-2/neu wild-type PEA3-binding site-luciferase) or by a mutated (Her-2/neu mutated PEA3-binding site-luciferase) Her-2/neu promoter fragment along with […] of the internal control plasmid pRL-CMV, which was used to correct for transfection efficiency. […] Approximately 24 hours after treatments, luciferase activities from cell extracts were detected with a luciferase Assay System following manufacturer's instructions (Promega, Madison, Wis., USA) using a Victor^2™ Multilabel Counter (Perkin-Elmer Life Sciences).
In general terms: A reporter such as luciferase makes a cellular process visible.

Another test relates to Lipogenic Cells. Briefly: Effect of fatty acids, lipogenic cells (Table 2). Type of test: cell-based.
In the next test the test system is Breast Cancer Cells. Kind of test: Effect of fatty acids, breast cancer cells (Table 2). The test is classed as cell-based. The note with it: FAS named only for oleic acid.
The subject of a further test is AP-2. Briefly: AP-2 expression levels. The test is classed as cell-based, human.

On to `CCCCCC=CCC=CCC=CCCCCC(=O)O` [GLA, 6,9,12-octadecatrienoic acid], for which, in the test on BT-474 cells (concurrent 10 μg/ml GLA), the “increase in sensitivity to trastuzumab” value was “approximately 30 fold”. The “Luciferase activity relative to vehicle-treated wild-type promoter cells” value is 35% (95% CI = 33-37%) in test [1] (BT-474); 80% (95% CI = 75-85%) in test [1] (MDA-MB-231); 26% (95% CI = 25-27%) in test [1] (MDA-MB-453); 38% (95% CI = 34-42%) in test [1] (NCI-N87); 54% (95% CI = 51-57%) in test [1] (SK-Br3); 21% (95% CI = 16-26%) in test [1] (SK-OV3). Further, in the test on Lipogenic Cells, the “Effect of Fatty Acids: Lipogenic Cells” value is given as “No effect”. Further, the “Effect of Fatty Acids: Breast Cancer Cells” value in the test with Breast Cancer Cells was “Potent Down-regulator”. In addition, the AP-2 expression result in the test with AP-2 (GLA-treated cells) is given as “does not appear to regulate”.

Turning to `CCCCCCCCC=CCCCCCCCC(=O)O` [OA, 9-octadecenoic acid], the “sensitization factor (IC50 without OA / IC50 with OA)” value in the test with BT-474 cells (10 mM OA, sensitization to trastuzumab) came out at 40 fold. In addition, the inhibition at 20 µM is 55% in test [1] (NCI-N87, 24 h, NCI-N87); not above 56% in test [1] (SK-BR-3, 24 h, SK-Br3); not above 75% in test [1] (SK-OV-3, 24 h, SK-OV3). Moreover, the “reduction of Her-2/neu gene promoter activity” value in test [1] (MCF-7/Her2-18 transfectants, OA supplementation) is “up to 22%”. For the same compound, the “reduction of wild-type Her-2/neu promoter luciferase reporter activity” value in test [1] (MCF-7/neo cells, OA treatment) is listed as “up to 12%”. The “reduction of Her-2/neu promoter activity” value in test [1] (MCF-7 breast cancer cells (physiological Her-2/neu levels), OA) is recorded as less than 20%. In addition, the “Effect of Fatty Acids: Lipogenic Cells” value with Lipogenic Cells is recorded as “No effect”. The “Effect of Fatty Acids: Breast Cancer Cells” value with Breast Cancer Cells is “Down-regulates”. In addition, in the test with AP-2 (Her-2/neu-overexpressing cancer cells, OA supplementation), the AP-2 expression levels result is reported as “failed to modulate”.
